Assay results as given in patent US8193333B2, “Cancer therapy using Bcl-Xl-specific siNA” (Centre Regional de Lutte Contre le Cancer-Centre Francois …, priority 2006, dated 2012).

Test system: subcutaneous SKOV3 human ovarian carcinoma
Assay: Growth of subcutaneous SKOV3 tumours in nude mice
Assay type: in vivo
Settings: 25 μg/kg intraperitoneally once a week, FIG. 16
Description: PEI/siRNA complexes were prepared in 5% glucose solution with a ratio of L-PEI nitrogen to siRNA phosphate of 5:1. Various amounts of siRNA (125, 625 or 2500 ng) and L-PEI were diluted separately, and PEI was then added to the siRNA. The solution was quickly homogenized and left for 15 min at room temperature. It was injected intraperitoneally in mice as a 0.5 ml 5% glucose solution.
SKOV3 cells (2×10^7/500 μL) were inoculated subcutaneously into the right flank of nude mice, and establishment of palpable tumours was determined. The tumour volume was calculated as v=L×l^2×p/6 where L and l represent the larger and the smaller tumour diameter measured twice week with digital caliper. When tumours reached an average volume of ˜100 mm^3 (on day 10), three experimental groups (three mice per group) were tested as follow: (a) untreated, (b) siXL1 naked (25 μg/kg), and (c) siXL1-PEI (25 μg/kg). The samples were diluted in 0.5 ml 0.9% NaCl solution (siRNA naked) or in 0.5 ml 5% glucose solution (siRNA-PEI) and injected intraperitoneally. This process was repeated once a week.

Substance: siXL1: double-stranded siRNA blocking Bcl-XL expression; sense 5′-auuggugagucggaucgcatt-3′ (SEQ ID NO: 5), anti-sense 5′-ugcgauccgacucaccaautt-3′ (SEQ ID NO: 6) (sense AUUGGUGAGUCGGAUCGCATT; antisense UGCGAUCCGACUCACCAAUTT; chemistry not given here)
- effect on subcutaneous tumor growth: almost no effect
